# Measurements as given in ChEMBL document CHEMBL1201862, “PubChem BioAssay data set” (2004).
# Active and inactive are the calls of the source. For most assays here, no stated cut-off is given here; in the data, actives have a measured EC50 and inactives only a lower limit.
# How the values were obtained:
# [1] = target: T1, RNA-binding protein pos-1 (Caenorhabditis elegans, UniProt G5EF15); test: inhibitors of POS-1/mex-3 RNA binding, dose response, biochemical, fluorescence polarization (AID 1964);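 further: purified POS-1 fused to maltose binding protein made in E. coli; potency of compounds blocking POS-1 binding to fluorescent RNA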
# T1 sequence (G5EF15 whole entry): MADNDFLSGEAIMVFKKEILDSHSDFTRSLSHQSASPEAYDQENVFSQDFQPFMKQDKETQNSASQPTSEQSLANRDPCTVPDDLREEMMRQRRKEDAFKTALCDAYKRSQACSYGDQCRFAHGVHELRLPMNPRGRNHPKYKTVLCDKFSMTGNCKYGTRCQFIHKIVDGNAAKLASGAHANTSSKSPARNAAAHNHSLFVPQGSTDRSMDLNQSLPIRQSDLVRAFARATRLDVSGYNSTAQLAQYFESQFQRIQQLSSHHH
# [2] = target: T2, Mannose-6-phosphate isomerase (Homo sapiens, UniProt P34949); test: human PMI inhibitors, high substrate, primary screen, biochemical, fluorescence intensity, high mannose 6-phosphate (AID 1220)
# T2 sequence (P34949 whole entry): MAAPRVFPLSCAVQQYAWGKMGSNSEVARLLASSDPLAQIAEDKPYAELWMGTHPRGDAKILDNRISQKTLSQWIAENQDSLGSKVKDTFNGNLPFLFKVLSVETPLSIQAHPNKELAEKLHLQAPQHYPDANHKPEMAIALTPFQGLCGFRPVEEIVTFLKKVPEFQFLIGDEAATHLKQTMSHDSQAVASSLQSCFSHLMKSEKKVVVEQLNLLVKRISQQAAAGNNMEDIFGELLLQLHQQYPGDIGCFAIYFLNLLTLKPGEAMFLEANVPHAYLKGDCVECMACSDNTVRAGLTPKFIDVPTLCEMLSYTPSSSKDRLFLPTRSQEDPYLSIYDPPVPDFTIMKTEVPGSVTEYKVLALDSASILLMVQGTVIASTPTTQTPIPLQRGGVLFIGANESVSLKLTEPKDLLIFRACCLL
# [3] = inhibitors of SNCA 5'UTR-driven reporter translation, confirmation, H4 neuroglioma cells, luminescence (AID 1988); format: functional, cell-based
# [4] = target: T3, Zinc finger protein mex-5 (Caenorhabditis elegans, UniProt Q9XUB2); test: MEX-5/TCR-2 RNA interaction inhibitors, dose response, biochemical, C. elegans, fluorescence polarization (AID 1960)
# T3 sequence (Q9XUB2 whole entry): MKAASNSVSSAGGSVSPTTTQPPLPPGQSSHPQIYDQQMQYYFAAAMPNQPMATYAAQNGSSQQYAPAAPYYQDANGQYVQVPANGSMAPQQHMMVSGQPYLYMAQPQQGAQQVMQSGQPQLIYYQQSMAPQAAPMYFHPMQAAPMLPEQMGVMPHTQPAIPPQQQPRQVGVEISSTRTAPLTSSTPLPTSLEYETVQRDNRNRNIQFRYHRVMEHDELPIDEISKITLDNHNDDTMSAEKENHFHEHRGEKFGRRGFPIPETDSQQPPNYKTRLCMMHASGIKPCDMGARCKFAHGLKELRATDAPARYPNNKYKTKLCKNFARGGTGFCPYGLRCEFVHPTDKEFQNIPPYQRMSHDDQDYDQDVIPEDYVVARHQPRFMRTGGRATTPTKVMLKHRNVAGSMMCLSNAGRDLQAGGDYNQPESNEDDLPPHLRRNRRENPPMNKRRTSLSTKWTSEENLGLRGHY
# Protein RecA = target: T4, Protein RecA (Mycobacterium tuberculosis, UniProt P9WHJ3); test: Fluorescence Cell-Free Homogeneous Dose Retest to Identify Inhibitors of RecA-Intein Splicing Activity. [Related pubchem assays (depositor defined):AID2097, AID2223, AID489010, AID492950]; format: functional
# T4 sequence (P9WHJ3 whole entry): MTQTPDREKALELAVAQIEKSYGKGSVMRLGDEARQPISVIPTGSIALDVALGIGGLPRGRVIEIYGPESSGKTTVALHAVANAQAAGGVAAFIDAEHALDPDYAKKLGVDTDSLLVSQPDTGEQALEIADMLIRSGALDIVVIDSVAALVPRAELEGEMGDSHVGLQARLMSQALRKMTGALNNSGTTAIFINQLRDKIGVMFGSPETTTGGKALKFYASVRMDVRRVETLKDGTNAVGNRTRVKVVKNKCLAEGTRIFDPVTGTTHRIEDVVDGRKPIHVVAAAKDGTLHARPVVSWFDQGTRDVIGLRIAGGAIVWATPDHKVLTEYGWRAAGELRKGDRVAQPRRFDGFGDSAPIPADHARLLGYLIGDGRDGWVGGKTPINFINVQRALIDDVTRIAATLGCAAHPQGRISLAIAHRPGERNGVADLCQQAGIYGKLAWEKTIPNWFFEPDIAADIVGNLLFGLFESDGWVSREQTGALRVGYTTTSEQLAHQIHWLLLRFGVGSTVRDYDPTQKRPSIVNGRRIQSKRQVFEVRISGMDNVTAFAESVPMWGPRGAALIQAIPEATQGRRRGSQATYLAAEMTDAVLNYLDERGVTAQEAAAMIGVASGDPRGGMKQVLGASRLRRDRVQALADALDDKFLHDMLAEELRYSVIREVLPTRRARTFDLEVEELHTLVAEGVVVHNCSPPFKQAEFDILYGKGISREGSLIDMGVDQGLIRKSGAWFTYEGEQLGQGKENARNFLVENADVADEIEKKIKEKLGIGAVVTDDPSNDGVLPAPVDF
# [5] = target: Induced myeloid leukemia cell differentiation protein Mcl-1 (Homo sapiens, UniProt Q07820); format: functional
# [6] = Luminescence Cell-Based Dose Response HTS to Identify Inhibitors of 5'UTR Stem-Loop Driven Prion Protein mRNA Translation in H4 Neuroglioblastoma Cells. [Related pubchem assays: 1827 (Project Summary), 1813 (Primary HTS)]; format: functional
# [7] = inhibitors of intracellular T. cruzi replication, confirmation, NIH3T3 host cells, beta-gal luminescence (AID 2044); format: functional, cell-based;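 further: intracellular parasites grown in NIH/3T3 mouse fibroblasts as host cells; luminescent beta-galactosidase reporter signal from transgenic T. cruzi replicating inside host cells; inhibitors lower the luminescence signal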
# [8] = cytotoxicity toward NIH3T3 fibroblasts, dose response, counter-screen, cell-based, ATP luminescence, mouse fibroblasts (AID 2010); format: functional;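 further: cells exposed to compound for about 90 hours before reading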
# [9] = inhibitors of firefly luciferase expression or activity, dose response, H4 neuroglioma cells, luminescence (AID 1990); format: functional, cell-based
# [10] = target: T5, Replicative DNA helicase DnaB (Mycobacterium tuberculosis, UniProt P9WMR3); test: DnaB intein splicing inhibitors, dose response, biochemical, cell-free fluorescence (AID 449749); format: functional
# T5 sequence (P9WMR3 whole entry): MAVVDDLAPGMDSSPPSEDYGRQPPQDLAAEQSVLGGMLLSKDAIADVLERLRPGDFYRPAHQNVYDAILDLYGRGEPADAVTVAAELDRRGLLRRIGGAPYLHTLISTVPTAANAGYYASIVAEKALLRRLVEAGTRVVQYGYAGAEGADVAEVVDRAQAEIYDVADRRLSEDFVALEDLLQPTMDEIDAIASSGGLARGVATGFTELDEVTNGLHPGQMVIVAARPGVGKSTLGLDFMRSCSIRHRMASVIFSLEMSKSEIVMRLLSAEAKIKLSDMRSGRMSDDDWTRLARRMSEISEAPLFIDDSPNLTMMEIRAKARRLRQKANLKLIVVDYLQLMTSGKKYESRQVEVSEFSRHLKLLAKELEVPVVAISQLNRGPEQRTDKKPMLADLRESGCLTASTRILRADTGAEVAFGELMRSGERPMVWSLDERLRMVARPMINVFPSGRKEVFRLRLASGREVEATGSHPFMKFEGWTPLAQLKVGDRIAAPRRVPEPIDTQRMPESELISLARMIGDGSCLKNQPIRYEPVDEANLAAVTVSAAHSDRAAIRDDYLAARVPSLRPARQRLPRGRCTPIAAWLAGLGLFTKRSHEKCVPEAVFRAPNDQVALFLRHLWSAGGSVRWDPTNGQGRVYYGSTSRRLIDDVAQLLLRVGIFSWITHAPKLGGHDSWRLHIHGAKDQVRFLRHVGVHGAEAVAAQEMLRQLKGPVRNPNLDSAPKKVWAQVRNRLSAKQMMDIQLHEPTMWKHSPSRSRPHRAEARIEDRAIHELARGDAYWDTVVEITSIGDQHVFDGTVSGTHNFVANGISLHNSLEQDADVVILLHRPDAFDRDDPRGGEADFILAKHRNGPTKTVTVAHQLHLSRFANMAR
# Jurkat = test: antigen receptor-induced NF-kB inhibitors, dose response, Jurkat, luciferase reporter, luminescence, B- and T-cell (AID 489004); format: functional, cell-based; details: Homo sapiens;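 further: NF-kB luciferase reporter Jurkat cells stimulated with PMA plus ionomycin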
# [11] = C. albicans growth with fluconazole, confirmation, fluorescence, retest (AID 2467); format: functional, cell-based
# BJ [12] = test: cells; format: functional, cell-based; details: Homo sapiens
# Streptococcus = test: Group A Streptococcus viability loss, dose response, counter-screen for streptokinase expression inhibitor project, luminescence, BacTiterGlo (AID 1915); format: functional, organism-based;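 further: potency for reduction of bacterial viability or growth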
# [13] = NIH-3T3 fibroblast cytotoxicity, dose response, cytotoxicity control, cell-based, fluorescence, Alamar Blue, secondary assay (AID 2327); format: functional;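 further: NIH-3T3 mouse fibroblasts cultured with fluconazole at 8 µg/mL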
# [14] = cytotoxicity in HEK-293T NF-kB-Luc cells, dose response, cytotoxicity control for B/T-cell NF-kB inhibitor project, cell-based, uHTS hits (AID 489019); format: functional;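 further: IC50 reflects cytotoxicity as loss of cell viability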
# Nonstructural protein 1 = Nonstructural protein 1 (Influenza A virus, UniProt Q194T2); format: functional, Influenza A virus (A/California/07/2009(H1N1))
# [15] = microbe, parasite or virus in culture; format: functional; details: Mycobacterium tuberculosis
# [16] = target: T6, Long-chain-fatty-acid--AMP ligase FadD28 (Mycobacterium tuberculosis, UniProt P9WQ59); test: Fluorescence polarization aasay to screen for inhibitors that compete for the binding of FadD28 to a bisubstrate Measured in Biochemical System Using Plate Reader - 2147-01_Inhibitor_Dose_CherryPick_Activity.; format: functional, Mycobacterium tuberculosis H37Rv
# T6 sequence (P9WQ59 whole entry): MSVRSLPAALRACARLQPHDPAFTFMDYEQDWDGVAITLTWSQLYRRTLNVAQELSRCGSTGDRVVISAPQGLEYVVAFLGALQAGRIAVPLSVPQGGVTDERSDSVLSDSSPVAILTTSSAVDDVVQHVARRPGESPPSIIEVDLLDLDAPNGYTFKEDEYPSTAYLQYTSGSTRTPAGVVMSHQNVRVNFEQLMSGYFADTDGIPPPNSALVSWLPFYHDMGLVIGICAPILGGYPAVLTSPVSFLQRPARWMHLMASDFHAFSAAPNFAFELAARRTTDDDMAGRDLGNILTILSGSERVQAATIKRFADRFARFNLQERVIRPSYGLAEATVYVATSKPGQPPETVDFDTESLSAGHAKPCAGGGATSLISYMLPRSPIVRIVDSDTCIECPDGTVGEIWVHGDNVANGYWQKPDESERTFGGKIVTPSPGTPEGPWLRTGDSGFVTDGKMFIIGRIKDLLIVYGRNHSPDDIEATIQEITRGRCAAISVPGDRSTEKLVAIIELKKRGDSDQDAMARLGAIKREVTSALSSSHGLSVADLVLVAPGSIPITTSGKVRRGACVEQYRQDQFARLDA
# Streptokinase A = target: T7, Streptokinase A (Streptococcus pyogenes serotype M1, UniProt P10520); test: S. pyogenes streptokinase expression inhibitors, potency, dose response, plasminogen activation absorbance, OD405 (AID 1914); format: functional, Streptococcus pyogenes M1 GAS;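 further: secreted streptokinase activity via plasminogen activation per viability signal from cell pellet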
# T7 sequence (P10520 whole entry): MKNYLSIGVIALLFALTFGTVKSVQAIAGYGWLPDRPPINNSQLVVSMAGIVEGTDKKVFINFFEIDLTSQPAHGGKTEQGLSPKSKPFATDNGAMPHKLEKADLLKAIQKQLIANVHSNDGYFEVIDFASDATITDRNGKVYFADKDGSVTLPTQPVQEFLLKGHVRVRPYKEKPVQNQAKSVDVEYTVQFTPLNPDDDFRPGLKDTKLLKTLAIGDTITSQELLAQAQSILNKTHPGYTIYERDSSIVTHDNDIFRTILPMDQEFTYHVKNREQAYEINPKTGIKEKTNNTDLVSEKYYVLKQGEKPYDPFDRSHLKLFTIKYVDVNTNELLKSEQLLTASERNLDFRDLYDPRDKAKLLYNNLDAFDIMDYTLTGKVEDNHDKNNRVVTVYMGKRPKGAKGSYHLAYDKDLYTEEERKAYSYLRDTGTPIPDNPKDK
# [17] = cytotoxicity toward DRD oncogenic fibroblasts, dose response, cell-based, non-viral oncogenic, luminescence (AID 1934); format: functional; details: Homo sapiens
# BJ [18] = test: cytotoxicity toward BJ-TERT-LT-ST fibroblasts, dose response, cell-based, RAS-independent, luminescence (AID 1935); format: functional; details: Homo sapiens;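 further: BJ fibroblasts immortalized with TERT plus LT and ST oncogenes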
# BJ [19] = test: cytotoxicity toward BJ-TERT fibroblasts, dose response, cell-based, RAS-independent, luminescence (AID 1933); format: functional; details: Homo sapiens
# [20] = system: Streptococcus sp. 'group A'; test: growth inhibition of control SK(-) GAS strain, dose response, counter-screen for streptokinase expression inhibitor project, luminescence, kanamycin, BacTiterGlo, confirmation (AID 1900); format: functional, organism-based
# Sequence of Induced myeloid leukemia cell differentiation protein Mcl-1 (Q07820 whole entry): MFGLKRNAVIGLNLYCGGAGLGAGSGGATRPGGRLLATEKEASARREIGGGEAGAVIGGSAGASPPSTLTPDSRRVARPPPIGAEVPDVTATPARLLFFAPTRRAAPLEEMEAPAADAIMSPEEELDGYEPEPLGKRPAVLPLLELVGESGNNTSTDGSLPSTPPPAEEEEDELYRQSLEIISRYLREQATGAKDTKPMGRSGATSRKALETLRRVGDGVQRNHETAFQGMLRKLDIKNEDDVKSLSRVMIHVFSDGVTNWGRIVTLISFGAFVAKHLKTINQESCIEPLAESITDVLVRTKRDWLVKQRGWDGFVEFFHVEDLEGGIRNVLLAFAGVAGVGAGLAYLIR
# Sequence of Nonstructural protein 1 (Q194T2 whole entry): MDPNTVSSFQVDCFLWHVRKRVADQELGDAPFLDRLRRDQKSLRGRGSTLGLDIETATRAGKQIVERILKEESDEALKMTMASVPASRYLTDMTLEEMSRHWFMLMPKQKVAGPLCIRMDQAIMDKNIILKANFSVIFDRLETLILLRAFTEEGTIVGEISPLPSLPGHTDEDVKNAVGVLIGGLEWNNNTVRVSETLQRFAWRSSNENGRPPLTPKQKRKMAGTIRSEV
smiles,measurement,setting,value
CN1C=C/C(=C\c2cc[n+](C)c3ccccc23)c2ccccc21,EC50,[1],65.7 µM (active)
same,IC50,[2],> 50 µM (not active)
same,EC50,[3],6.93 µM (active)
same,EC50,[4],40 µM (inconclusive)
same,EC50,Protein RecA,1.48 µM (active)
same,EC50,cells,< 0.004 µM (active)
same,IC50,[5],13 µM (active)
same,EC50,[6],8.89 µM (active)
same,EC50,[7],< 0.1 µM (active)
same,EC50,[8],> 60 µM (not active)
same,EC50,[9],9.17 µM (active)
same,AC50,[10],121 µM (active)
C[n+]1c(-c2ccccc2)c2cc(N)ccc2c2ccc(N)cc21,IC50,Jurkat,> 80 µM (inactive)
same,EC50,[11],0.121 µM (active)
same,EC50,BJ [12],6.25 µM (active)
same,EC50,Streptococcus,5.67 µM (active)
same,EC50,[13],> 160 µM (inconclusive)
same,EC50,[3],9.48 µM (active)
same,EC50,cells,0.011 µM (active)
same,IC50,[14],> 80 µM (inactive)
same,IC50,Nonstructural protein 1,30.5 µM (active)
same,CC50,[15],> 40 µM (active)
same,AC50,[16],> 100 µM (inactive)
same,EC50,Streptokinase A,> 150 µM (not active)
same,EC50,[6],20.1 µM (active)
same,EC50,[17],7.32 µM (active)
same,EC50,[7],< 0.1 µM (active)
same,EC50,BJ [18],10.5 µM (active)
same,EC50,[8],12.3 µM (active)
same,EC50,[9],> 120 µM (not active)
same,EC50,BJ [19],3.61 µM (active)
same,EC50,[20],1.29 µM (active)
